Our source for the IC50 values is patent US20180193412A1, “Method of In Vivo Treatment” (Hexima Limited, priority 2015, published 2018).

This test relates to E. coli. It is filed as cell-based, Escherichia coli. Particulars: Mueller-Hinton Broth, 37° C., 18 hours, up to 20 μM; read-out: IC50 against E. coli. As to the method:
A single E. coli or B. subtilis colony was used to inoculate 5 ml of Luria-Bertani media and grown overnight at 37° C. The following day, the optical density of the culture was measured and the bacteria diluted to an optical density at 600 nm (OD600) of 0.01 in Mueller-Hinton Broth. Diluted E. coli or B. subtilis were added to 96-well plates with defensins at concentrations of 20 μM, 10 μM, 5 μM, 2.5 μM, 1.25 μM, 0.625 μM or 0.3125 μM. Plates were read at OD595 to obtain time zero data points. Plates were incubated at 37° C. for 18 hours before reading again at OD595 to assess the amount of bacterial growth.

For `CC[C@H](C)[C@H](NC(=O)[C@H](CCCCN)NC(=O)[C@H](CCC(=O)O)NC(=O)[C@H](CCCCN)NC(=O)[C@H](CO)NC(=O)[C@H](CCCCN)NC(=O)[C@H](CCCNC(=N)N)NC(=O)[C@H](Cc1ccccc1)NC(=O)[C@H](Cc1ccccc1)NC(=O)[C@H](CC(=O)O)NC(=O)CNC(=O)[C@H](CC(C)C)NC(=O)[C@@H](N)CC(C)C)C(=O)NCC(=O)N[C@@H](CCCCN)C(=O)N[C@@H](CCC(=O)O)C(=O)N[C@@H](Cc1ccccc1)C(=O)N[C@@H](CCCCN)C(=O)N[C@@H](CCCNC(=N)N)C(=O)N[C@H](C(=O)N[C@H](C(=O)N[C@@H](CCC(N)=O)C(=O)N[C@@H](CCCNC(=N)N)C(=O)N[C@H](C(=O)N[C@@H](CCCCN)C(=O)N[C@@H](CC(=O)O)C(=O)N[C@@H](Cc1ccccc1)C(=O)N[C@@H](CC(C)C)C(=O)N[C@@H](CCCNC(=N)N)C(=O)N[C@@H](CC(N)=O)C(=O)N[C@@H](CC(C)C)C(=O)N[C@H](C(=O)N1CCC[C@H]1C(=O)N[C@@H](CCCNC(=N)N)C(=O)N[C@H](C(=O)N[C@@H](CCC(=O)O)C(=O)N[C@@H](CO)C(=O)O)[C@@H](C)O)C(C)C)[C@@H](C)CC)C(C)C)[C@@H](C)CC` [LL37, reference compound], the IC50 was found to be 2500 nM.
